Measured values as given in US11473089B2, “Aptamer for ADAMTS5 and use for aptamer for ADAMTS5” (RIBOMIC INC., priority 2017, dated 2022).
pIC50: −log10 of the molar value. Read-outs that look alike come from different tables or passages of the source.

Legend:
ADAMTS5 [1] = molecular target: T1, ADAMTS5 (Homo sapiens, UniProt Q9UNA0); experiment: ADAMTS5 enzyme inhibition, aggrecan G1-IGD-G2 cleavage, SDS-PAGE detection (evaluation method 1); format: biochemical; settings: for % inhibitory activity: Table 3, final concentration of the nucleic acid 30 nM; for Inhibitory activity against ADAMTS5: Table 4; for inhibition rate % (10 nM aptamer): Table 5; for inhibitory activity against ADAMTS5 (in words, compared with parent sequence): enzyme assay as in Example 1
T1 construct: purchased R&D systems
T1 sequence (Q9UNA0 262-930): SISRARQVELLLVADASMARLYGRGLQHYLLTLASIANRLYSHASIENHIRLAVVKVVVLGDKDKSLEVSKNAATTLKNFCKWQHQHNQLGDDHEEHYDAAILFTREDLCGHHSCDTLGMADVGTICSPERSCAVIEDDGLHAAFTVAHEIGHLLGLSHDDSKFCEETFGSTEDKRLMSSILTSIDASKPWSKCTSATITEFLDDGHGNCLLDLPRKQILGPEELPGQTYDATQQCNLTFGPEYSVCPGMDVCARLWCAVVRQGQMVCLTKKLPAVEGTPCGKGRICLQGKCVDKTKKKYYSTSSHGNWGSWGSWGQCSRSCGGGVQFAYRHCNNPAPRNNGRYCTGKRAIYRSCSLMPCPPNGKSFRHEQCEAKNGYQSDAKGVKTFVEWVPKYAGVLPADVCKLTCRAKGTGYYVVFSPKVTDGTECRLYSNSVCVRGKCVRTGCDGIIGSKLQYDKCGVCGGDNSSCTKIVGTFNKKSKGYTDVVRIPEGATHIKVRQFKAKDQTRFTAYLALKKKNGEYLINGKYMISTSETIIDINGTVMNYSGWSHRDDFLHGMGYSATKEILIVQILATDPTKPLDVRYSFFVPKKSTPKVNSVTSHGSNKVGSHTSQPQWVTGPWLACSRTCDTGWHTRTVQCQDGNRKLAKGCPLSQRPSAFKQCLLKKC
Procedure: Whether an aptamer having the nucleotide sequence shown in SEQ ID NO: 1 inhibits the enzyme activity of ADAMTS5 was evaluated by the following method. As a substrate of ADAMTS5, the G1-IGD-G2 domain of aggrecan (manufactured by R&D systems) was used. ADAMTS5 specifically cleaves in between the 392nd glutamic acid and the 393rd alanine in the G1-IGD-G2 domain and produces two fragments. These fragments have faster electrophoretic mobility than uncleaved G1-IGD-G2. Thus, the enzyme activity of ADAMTS5 can be measured by quantifying the band intensity of G1-IGD-G2 by SDS-PAGE electrophoresis. The assay was performed in a solution A buffer with a reaction mixture volume of 10 μL. First, a mixture (10 μL) of a nucleic acid and ADAMTS5 was prepared and incubated at 25° C. for 15 min. To a substrate solution (5 μL) diluted with solution A was added a mixture (5 μL) of the nucleic acid and ADAMTS5 to start the enzyme reaction. The final concentration of ADAMTS5 in the reaction solution was 5 nM, and the final substrate concentration was 50 μg/mL. The reaction solution was incubated at 37° C. for 2 hr, 2 μL of solution D was added, and the mixture was heated at 95° C. for 2 min to stop the enzyme reaction of ADAMTS5. Solution D contains 0.25 M tris (pH 6.8), 10% SDS, 50% glycerol, 0.25% bromo phenolblue, and 20% 2-mercaptoethanol. The heat-treated reaction solution was electrophoresed by 7.5% SDS-PAGE and stained with SYPRO Orange (manufactured by Sigma-Aldrich). The staining was performed according to the manual of Sigma-Aldrich and detected using STORM840 manufactured by GE Healthcare. For analytical curves, uncleaved substrates 1000 ng, 400 ng, 160 ng, 64 ng, 25.6 ng, 10.24 ng, and 4.1 ng were electrophoresed, and staining and detection were performed in the same manner. The amount of uncleaved substrate in each reaction solution was quantified from the band intensity and the standard curve. The substrate cleavage efficiency of ADAMTS5 under these reaction conditions was 80-100%. The inhibition rate of the test substance was calculated using the following equation. inhibition rate (%)=(Sapt−SE)/(S0−SE)×100 wherein Sapt is the amount of an uncleaved substrate with the addition of a test substance, SE is the residual amount of an uncleaved substrate with the addition of ADAMTS5, and S0 is the residual amount of an uncleaved substrate without the addition of ADAMTS5.
The concentration of an inhibitor necessary for inhibiting 50% of the enzyme activity (IC50) was determined. IC50 is a mean of four measurements.

ADAMTS5 [2] = molecular target: T1, ADAMTS5; experiment: binding activity to ADAMTS5 by surface plasmon resonance (Biacore T100); settings: Table 10
Procedure: The binding activity of aptamers having the nucleotide sequences shown in SEQ ID NOs: 1 and 2 to ADAMTS5 was evaluated by the surface plasmon resonance method. Biacore T100 manufactured by GE Healthcare was used for the measurement. The SA chip was used as the sensor chip, which had streptavidin immobilized thereon. About 800 RU of a 16-nucleotide Poly dT with biotin at the 5′-terminal was bound on the chip. […] ADAMTS5 for analyte was prepared at 0.1 μM, and injected at a flow rate of 30 μL/min for 60 sec. As the running buffer, solution C was used. The solution C is a mixed solution of 300 mM sodium chloride, 5.4 mM potassium chloride, 1.8 mM calcium chloride, 0.8 mM magnesium chloride, 20 mM tris (pH 7.6), and 0.05% Tween20.
SEQ ID NO: 2 has a sequence with one base deletion from the continuous 4 G bases in the consensus sequence, and it was shown from the measurement results of the binding activity that the continuous 4 G bases in the consensus sequence are important for the activity of aptamers. Sensorgram showing the binding of an aptamer having the nucleotide sequence shown in SEQ ID NO: 1 to ADAMTS5 is presented in FIG. 2. In Table 1, “++” indicates those with the proportion of ADAMTS5 binding amount (RU value) to the amount of aptamer immobilized on the SA chip (RU value) of not less than 40%, “+” indicates those with the proportion of not less than 10% and less than 40%, and “−” indicates those with the proportion of less than 10%.
The binding activity and enzyme inhibitory activity of aptamers having nucleotide sequences shown in SEQ ID NOs: 16-25 to ADAMTS5 were measured. The binding activity was evaluated by the surface plasmon resonance method. For the measurement, a method similar to that in Example 1 was used. The enzyme inhibitory activity was measured by a method similar to that in Example 1. […] The negative control nucleic acid refers to the nucleic acid pool used in the first round of the SELEX method. The “++” indicates those with the proportion of ADAMTS5 binding amount (RU value) to the amount of aptamer immobilized on the SA chip (RU value) of not less than 40%, and “+” indicates those with the proportion of less than 40%. […] “n.d.” means not determined.
The binding activity of the nucleic acids shown in SEQ ID NOs: 30-45 to ADAMTS5 was measured. The binding activity was evaluated by the surface plasmon resonance method. In the Table, “++” indicates those with the proportion of ADAMTS5 binding amount (RU value) to the amount of aptamer immobilized on the SA chip (RU value) of not less than 40%, “+” indicates those with the proportion of not less than 10% and less than 40%, and “−” indicates those with the proportion of less than 10%.

[3] = Table 9, electrophoresis detection, 10 nM nucleic acid

## 3 (GGAUUGGGGCCUCCACAGCUGCUCAGCUUGGACUAAACCAAUCC; 2'-fluoro at CU, RNA at AG, backbone not given here) [compound 3]
ADAMTS5 [1]
  % inhibitory activity: 36.4%
ADAMTS5 [1]; nucleic acid concentration 10 nM
  Inhibitory activity against ADAMTS5: 33.9%
ADAMTS5 [1]; nucleic acid concentration 30 nM
  Inhibitory activity against ADAMTS5: 58.4%

## 4 (GGCUUGGGGCCUCCACAGCUGCUCAGCUUGGACUAAACCAAGCC; 2'-fluoro at CU, RNA at AG, backbone not given here) [compound 4]
ADAMTS5 [1]
  % inhibitory activity: 23%

## 5 (GGCUUGGGGCCUCCACAGCGCUCGCUUGGACUAAACCAAGCC; 2'-fluoro at CU, RNA at AG, backbone not given here) [compound 5]
ADAMTS5 [1]
  % inhibitory activity: 27%

## 6 (GGCUUGGGGCCUCCACAGCUGUCAGCUUGGACUAAACCAAGCC; 2'-fluoro at CU, RNA at AG, backbone not given here) [compound 6]
ADAMTS5 [1]
  % inhibitory activity: 33.7%

## 7 (GGCUUGGGGCCUCCACAGCUGCUCAGCUUGGACUAACCAAGCC; 2'-fluoro at CU, RNA at AG, backbone not given here) [compound 7]
ADAMTS5 [1]
  % inhibitory activity: −2.3%

## 8 (GGCUUGGGGCCUCACAGCUGCUCAGCUUGACUAAACCAAGCC; 2'-fluoro at CU, RNA at AG, backbone not given here) [compound 8]
ADAMTS5 [1]
  % inhibitory activity: −8.6%

## 9 (GGAUUGGGGCCUCCACAGCGUCGCUUGGACUAAACCAAUCC; 2'-fluoro at CU, RNA at AG, backbone not given here) [compound 9]
ADAMTS5 [1]
  % inhibitory activity: 5.9%

## 10 (AUUGGGGCCUCCACAGCUGCUCAGCUUGGACUAAACCAAU; 2'-F and 2'-O-methyl modifications at positions not given here) [compound 10]
ADAMTS5 [1]; 10 nM aptamer
  inhibition rate % (10 nM aptamer): 65%
ADAMTS5 [1]; Table 6, 10 nM aptamer
  inhibitory activity (%) evaluation method 1: 65%

## 11 (AUUGGGGCCUCCACAGCGCUCGCUUGGACUAAACCAAU; 2'-F and 2'-O-methyl modifications at positions not given here) [compound 11]
ADAMTS5 [1]; 10 nM aptamer
  inhibition rate % (10 nM aptamer): 59.8%
ADAMTS5 [1]; Table 6, 10 nM aptamer
  inhibitory activity (%) evaluation method 1: 59.8%

## 12 (UUGGGGCCUCCACAGCGCUCGCUUGGACUAAACCAA; chemically modified, pattern not given here) [compound 12]
ADAMTS5 [1]; 10 nM aptamer
  inhibition rate % (10 nM aptamer): 71.1%

## 13 (GCUGGGGCCUCCACAGCGCUCGCUUGGACUAAACCAGC; chemically modified, pattern not given here) [compound 13]
ADAMTS5 [1]; Table 6, 10 nM aptamer
  inhibitory activity (%) evaluation method 1: 58.4%
ADAMTS5 [1]
  inhibitory activity against ADAMTS5 (in words, compared with parent sequence): does not affect the inhibitory activity

## 14 (AUUGGGGCCUCCACAGCUUCGGCUUGGACUAAACCAAU; listed as RNA, chemistry not given here) [compound 14]
ADAMTS5 [1]; Table 6, 10 nM aptamer
  inhibitory activity (%) evaluation method 1: 60.5%
ADAMTS5 [1]
  inhibitory activity against ADAMTS5 (in words, compared with parent sequence): does not affect the inhibitory activity

## 26 (GGGUAUAGGGGCCUCCACAGCGUAAGCUUGGACUUAAACCAUACCC; listed as RNA, chemistry not given here) [compound 26]
ADAMTS5 [1]; Table 8, 30 nM aptamer
  inhibitory activity % 30 nM aptamer: 63.5%

## 27 (UAUAGGGGCCUCCACAGCGUAAGCUUGGACUUAAACCAUA; aptamer; 2'-O-methyl modifications copied from another aptamer, pattern not given here, some with 3' inverted dT) [compound 27]
ADAMTS5 [1]; Table 8, read-out: IC50
  pIC50: 8.23

## 28 (CGUAGGGGCCUCCACAGCGUAAGCUUGGACUUAAACCACG; aptamer; 2'-O-methyl modifications copied from another aptamer, pattern not given here, some with 3' inverted dT) [compound 28]
ADAMTS5 [1]; Table 8, read-out: IC50
  pIC50: 8.47
ADAMTS5 [1]; [3]
  inhibitory activity (%) evaluation method 1: 81%

## 29 (CGUAGGGGCCUCCACAGCAUUCGCUUGGACACAAACCACG; aptamer; 2'-O-methyl modifications copied from another aptamer, pattern not given here, some with 3' inverted dT) [compound 29]
ADAMTS5 [1]; Table 8, 10 nM aptamer
  inhibitory activity % 10 nM aptamer: 84%
ADAMTS5 [1]; [3]
  inhibitory activity (%) evaluation method 1: 84%

## 30 (GGGUAUUGGGGCCUCCACAAUAGAUAAAUGGACUAAACCAACUCGA; 2'-fluoro at CU, RNA at AG, backbone not given here) [compound 30]
ADAMTS5 [2]
  binding activity: ++ (proportion of ADAMTS5 binding amount (RU value) to the amount of aptamer immobilized on the SA chip (RU value) of not less than 40%)

## 31 (GGGUAUUGGGGCCUCCACAGUUGAAGCUUGGACUAAACCAAUCUCGA; aptamer; 2'-fluoro at CU, RNA at AG, backbone not given here) [compound 31]
ADAMTS5 [2]
  binding activity: ++ (proportion of ADAMTS5 binding amount (RU value) to the amount of aptamer immobilized on the SA chip (RU value) of not less than 40%)

## 32 (GGGUAUUGGGGCCUCCACAGAAAAAUCUUGGACUAAACCAAUCUCGA; aptamer; 2'-fluoro at CU, RNA at AG, backbone not given here) [compound 32]
ADAMTS5 [2]
  binding activity: ++ (proportion of ADAMTS5 binding amount (RU value) to the amount of aptamer immobilized on the SA chip (RU value) of not less than 40%)

## Cn1nc(C(F)(F)F)c(/C=C2\SC(=S)NC2=O)c1SCc1ccc(Cl)cc1 [reference compound]
ADAMTS5 [1]; positive control, read-out: IC50 value
  pIC50: 4.04
